Data published in US11608309B2 (THE RESEARCH FOUNDATION FOR THE STATE UNIVERSITY OF NEW YORK, priority 2009, dated 2023).
pIC50: −log10 of the molar value. Values joined by “and” are separate entries in the source; they are usually repeats but may differ in a detail not shown here. Equal entries are not always repeated. Each block holds one molecule with its values, some of them ahead of it.

Experiments:
purified human PMN MMP-8 = purified human PMN MMP-8 (Homo sapiens (Human), UniProt P22894); assay: MMP-8 inhibition in vitro, synthetic octapeptide substrate, tripeptide products by HPLC; format: biochemical
purified human PMN MMP-8, sequence (P22894 101-467): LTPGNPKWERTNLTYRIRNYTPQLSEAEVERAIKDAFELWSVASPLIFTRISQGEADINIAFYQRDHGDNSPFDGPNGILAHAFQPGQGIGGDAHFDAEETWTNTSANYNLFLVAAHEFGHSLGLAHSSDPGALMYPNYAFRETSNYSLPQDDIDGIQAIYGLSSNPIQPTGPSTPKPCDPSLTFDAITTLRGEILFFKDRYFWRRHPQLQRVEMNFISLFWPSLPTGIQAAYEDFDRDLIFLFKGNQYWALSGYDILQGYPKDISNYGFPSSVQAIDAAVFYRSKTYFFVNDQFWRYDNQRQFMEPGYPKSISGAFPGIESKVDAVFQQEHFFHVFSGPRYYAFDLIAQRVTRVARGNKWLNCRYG

human monocytes = assay: Cytotoxicity in human monocytes (MTS); format: cell-based
Experimental: Briefly, human peripheral blood monocytes (HMs) were isolated from a leukocyte concentrate by density gradient centrifugation (Lymphoprep) and the isolated HMs cultured (2 h, 37° C.) to remove non-adherant cells. […] After incubation, the proinflammatory cytokines, TNFα, IL-1β, MCP-1 and IL-6 were measured in the conditioned media by ELISA and cytotoxicity was assessed by measuring the absorbance (490 ran) of formazan produced by reduction of MTS. The HMs alone ±0.1-0.5% DMSO produced minimal levels of these pro-inflammatory cytokines. However, addition of 100 ng/ml or 10 μg/ml of LPS both dramatically stimulated cytokine production.

[1] = system: LPS-challenged human monocytes; assay: Cytokine and growth factor levels in LPS-challenged human monocytes (Luminex multiplex); format: cell-based; conditions: 2 μM
Experimental: The cytokine levels were measured by Luminex multiplex, a method that allows the simultaneous measurement of different biological markers.

[2] = target: MMP-9 (human leukocyte gelatinase) (Homo sapiens (Human), UniProt P14780); assay: MMP-9 inhibition in vitro, octapeptide/HPLC; format: biochemical
MMP-9 (human leukocyte gelatinase), sequence (P14780 94-707): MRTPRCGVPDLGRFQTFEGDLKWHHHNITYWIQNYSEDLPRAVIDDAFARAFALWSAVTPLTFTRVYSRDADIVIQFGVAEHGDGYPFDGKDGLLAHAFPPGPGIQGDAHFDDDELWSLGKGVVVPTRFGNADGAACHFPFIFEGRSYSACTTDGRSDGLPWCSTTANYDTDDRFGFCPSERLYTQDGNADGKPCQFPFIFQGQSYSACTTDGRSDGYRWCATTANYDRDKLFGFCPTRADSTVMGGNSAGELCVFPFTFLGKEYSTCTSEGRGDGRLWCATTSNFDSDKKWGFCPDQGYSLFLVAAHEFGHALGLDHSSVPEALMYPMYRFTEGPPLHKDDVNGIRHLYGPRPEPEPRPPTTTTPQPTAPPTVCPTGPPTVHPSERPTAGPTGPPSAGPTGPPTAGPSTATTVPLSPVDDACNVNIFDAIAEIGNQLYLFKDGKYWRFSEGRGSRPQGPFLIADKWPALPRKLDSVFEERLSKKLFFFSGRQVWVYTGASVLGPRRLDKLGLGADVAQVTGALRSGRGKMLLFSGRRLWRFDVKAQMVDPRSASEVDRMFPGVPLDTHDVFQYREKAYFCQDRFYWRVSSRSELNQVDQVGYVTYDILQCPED

[3] = Hyperglycemia in streptozotocin-diabetic rats, 1-week oral treatment; format: in vivo, rat; conditions: 100 mg/kg oral once/day for 7 days
Text: The purpose of the following was to establish an in vivo model of excessive collagen degradation to be used to test efficacy of the compounds of the subject invention. Male Sprague-Dawley rats (typically 300-400 gms of body weight), specific viral antibody free, were ordered from Charles River. Following general anesthesia via isoflurane anesthetic inhalation, diabetes was induced by an I.V. administration of streptozotocin (STZ) (50* mg/kg body weight) (Sigma Chemical Co., St Louis, Mo., USA) diluted in 0.9% citrated saline (pH 4.5), after 12 hours of fasting. After the streptozotocin injection, the animals were given free access to water and food. […] In this test, the test-paper color changes to dark brown which indicates glycosuria.
The latter assays were carried out using Western blot analysis with monoclonal antibodies to MMP-8.

[4] = Diabetic adverse events in rats; format: in vivo, rat; conditions: 1-week oral treatment, n = 6
IL-1β = IL-1β (Rattus norvegicus (Rat), UniProt Q63264); assay: Gingiva IL-1β by ELISA in diabetic rats; format: in vivo; conditions: lower oral dose (100 mg/kg), 3 weeks
Experimental: (§1) At the end of the treatment protocol, the rats were sacrificed, blood samples were collected, and whole skin (except over limbs) and gingiva were dissected (the skin, because of ample quantities of tissue were analyzed for each rat separately; the gingiva, because of the tiny amounts that could be harvested per rat, were pooled for each experimental group, as prescribed previously for tetracycline studies (30). In addition, the jaw bones were collected, defleshed, and bone loss around the teeth analyzed morphometrically as described previously (42, 43).

[5] = Alveolar bone loss in diabetic rats; format: in vivo, rat; conditions: very high oral dose (500 mg/kg), 3 weeks
Experimental: as §1
Alveolar bone loss (the signature pathologic event in inflammatory periodontal disease) was assessed in the defleshed jaws of the compound 1-treated (TX) and untreated rats. Briefly, little or no difference in bone loss was seen comparing the untreated non-diabetic and untreated diabetic rat jaws (enhanced bone loss has been observed in diabetic rats previously when the duration of the hyperglycemia was greater than the 3-week experiment described herein).

MMP-2 = MMP-2 (Rattus norvegicus (Rat), UniProt P33436); assay: Skin MMP-2 by ELISA in diabetic rats; format: in vivo; conditions: both low and high doses
Experimental: as §1

[6] = system: neonatal rat ventricular myocytes; assay: Hydrogen peroxide induced LDH release; format: cell-based; conditions: H2O2 100 μM, compound 10 μM
Experimental: Neonatal rat ventricular myocytes, serum starved for 24 h, were treated with the inhibitors 1 h prior to the addition of 100 μM of hydrogen peroxide (Sigma). LDH release in the conditioned media was quantified using CytoTox-ONE Homogeneous Membrane Integrity Assay reagent (Promega) at the indicated time points.

[7] = system: neonatal rat ventricular myocytes; assay: Doxorubicin mediated caspase-3 activity; format: cell-based; conditions: doxorubicin 500 nM, 6 h and 24 h, compounds 10 μM
Experimental: Neonatal rat ventricular myocytes, serum starved for 24 h, were treated with the inhibitors 1 h prior to the addition of 500 nM of doxorubicin (Sigma). At the indicated time points cells were washed with ice-cold phosphate buffered saline and lysed using RIPA buffer (Pierce) containing protease and phosphatase inhibitors (Sigma). Caspase-3 activity in the cell lysates was measured by incubation with 7-amino-4-trifluoromethyl coumarin (Enzo).

[8] = system: PC-3 human prostate cancer cells; assay: MMP-9 in conditioned media of PC-3 cells (gelatin zymography, Western blot); format: cell-based; conditions: 10 μM and 20 μM, 48 hr
Experimental: Compound 1 was evaluated in a cell culture model of cancer. […] After the incubation, aliquots of the conditioned media were assayed for MMP-9 (gelatinase B) by either of two techniques, gelatin zymoyraphy (in the presence of 2 or 10 mMCa^++) and Western blot (both assays used purified MMP-9, 92 kDa gelatinase, as a standard).

[9] = Solubility in aqueous solutions; format: physicochemical
TNF-α = TNF-α production by LPS-stimulated human monocytes (ELISA); format: cell-based; conditions: 10 and 20 μM
Experimental: Briefly, human peripheral blood monocytes (HMs) were isolated from a leukocyte concentrate by density gradient centrifugation (Lymphoprep) and the isolated HMs cultured (2 h, 37° C.) to remove non-adherant cells. The adherent HMs were cultured for 18 h (1×10^6 cells/well, 24-well plates)±endotoxin (LPS)±different compounds dissolved in DMSO (the final concentration of DMSO in the RPMI serum-free culture media with Pen./Strep, antibiotics was no greater than 0.5%). After incubation, the proinflammatory cytokines, TNFα, IL-1β, MCP-1 and IL-6 were measured in the conditioned media by ELISA and cytotoxicity was assessed by measuring the absorbance (490 ran) of formazan produced by reduction of MTS. The HMs alone ±0.1-0.5% DMSO produced minimal levels of these pro-inflammatory cytokines. However, addition of 100 ng/ml or 10 μg/ml of LPS both dramatically stimulated cytokine production.

pIC50 (purified human PMN MMP-8; read-out: IC50 against purified hMMP-8): 5.00 and 4.46
SMILES: c1cnc2c(c1)ccc1cccnc12 [1,10-phenanthroline, 1,10-O-phenanthroline]

SMILES: COC(=O)C(C(=O)/C=C/c1ccc(O)c(OC)c1)C(=O)/C=C/c1ccc(O)c(OC)c1 [Compound 1, 1,7-Bis(4-hydroxy-3-methoxyphenyl)-4-methoxycarbonylhepta-1E,6E-dien-3,5-dione]
Cytotoxicity Monocytes @ 5 h incubation (human monocytes; 2 uM): 2 uM- 0% | Cytotoxicity Monocytes @ 5 h incubation (human monocytes; 10 uM): 10 uM- 0% | Reduction of MCP-1, TNFα and VEGF levels [1]: potent in reducing | pIC50 [2]: 4.77 to 5.22 | Effect on severity of hyperglycemia (serum glucose) [3]: no effect | Description of AEs [4]: Minor inflamed sclera | Incidence of Adverse Events (AEs) [4]: 1/6 | Reduction of IL-1β in gingiva vs untreated diabetic (IL-1β): about 18% | Reduction in alveolar bone loss vs untreated groups [5]: less effective | Reduction of elevated MMP-2 level in skin (MMP-2): 28% | Effect on LDH release ([6]; 24 h): less dramatic effect | Modulation of doxorubicin mediated caspase-3 activity [7]: None of the MMP inhibitors, including compound 1, negatively modulate caspase-3 activity | Production and/or activity of MMP-9 [8]: inhibited the production and/or activity of MMP-9 | Solubility [9]: more soluble than the insoluble natural product curcumin

pIC50 [2]: 4.77 to 5.22
SMILES: COC(=O)C(C(=O)/C=C/c1ccc(O)cc1)C(=O)/C=C/c1ccc(O)cc1 [Compound 3, 1,7-Bis(4-hydroxyphenyl)-4-methoxycarbonylhepta-1E,6E-dien-3,5-dione]
IC50 collagenase (MMP-8) activity (purified human PMN MMP-8; Example 7 experiment, 37° C., 1 mM Ca++): more potent as a collagenase or MMP inhibitor than compound 1 | Solubility [9]: more soluble in aqueous solutions than compound 1

pIC50 [2]: 4.77 to 5.22
SMILES: COc1cc(/C=C/C(=O)CC(=O)/C=C/c2ccc(N(C)C)cc2)ccc1O [Compound 4]

Solubility [9]: insoluble
SMILES: COc1cc(/C=C/C(=O)CC(=O)/C=C/c2ccc(O)c(OC)c2)ccc1O [Curcumin, diferuloylmethane]
Cytotoxicity Monocytes @ 5 h incubation (human monocytes; 10 uM): 10 uM- 0% | Cytotoxicity Monocytes @ 18 h incubation (human monocytes; 10 uM, 18 h): 10 uM- 0% | Cytotoxicity associated with TNFα inhibitory effect (human monocytes; 50 and 100 μM, some precipitation in cell culture): significant cytotoxicity | Effect on TNFα production by endotoxin-stimulated human monocytes (TNF-α): no effect

SMILES: CNC(=O)[C@H](Cc1c[nH]c2ccccc12)NC(=O)[C@@H](CC(=O)NO)CC(C)C [GM-6001]
Effect on LDH release [6]: did not affect LDH release

SMILES: CCOCOC[C@H](C[C@H](C)C(=O)NO)NC(=O)c1ccc(Oc2ccccc2)cc1 [ONO-4817]
Effect on LDH release [6]: did not affect LDH release
